Experimental data reported in patent publication US20200360365A1, “SUBSTITUTED HALO-QUINOLINE DERIVATES FOR USE IN THE TREATMENT OF LYMPHOMAS AND LEUKEMIA” (Instutut National de la Sante et de la Researche Medicale, priority 2018, published 2020).
Where two headings read alike, the source gives them in different places.

What was measured:
[1] = tested on: human Diffuse large B-cell lymphoma (DLBCL) B cell lines (U2932, KARPAS 422, SUDHL6, OCYL3); assay: B cell lymphoma proliferation assay; assay type: cell-based; conditions: 10 μM, 96 h
Protocol: B Cell Lymphoma Proliferation Assay
The tested cancer cells are the following: the human Diffuse large B-cell lymphoma (DLBCL) cell lines: Karpas-422, SUDHL-6, U2932 and Oxyl3.
Cells were counted using a flow cytometer (MACQUANT, Miltenyi). 2E5 cells were seeded in 2 ml RPMI-GlutamaX supplemented with 10% FCS at start of the proliferation assay in a 6-well plate supplemented with the NIK Inhibitor (compound 38) at 10 μM for 96 h. The cell numbers at 96h were then determined by counting using a flow cytometer. We distinguished dead and living cells using DAPI staining.
Proliferation was calculated as followed:
Proliferation (%)=(Treated cell number/untreated cells)*100.
The average and standard deviation were determined from 3 independent experiments.

NIK = NIK (Homo sapiens, UniProt Q99558); conditions: patent PCT/EP2017/067306; cited from earlier work
[2] = tested on: plck-GAPDH tumor (AITL-like lymphoma) engrafted in NSG mice; assay: Treatment of plck-GAPDH AITL lymphoma engrafted NSG mice; assay type: in vivo, mouse
Protocol: Tumor Transplantation into NOD/SCIDγc−/− (NSG) Mice
Single cell suspensions from spleen or lymph nodes of old (>18 months) plck-GAPDH mice with splenomegaly were injected intravenously (i.v.) into 6-8 week old NSG mice (1-2E7 splenocytes per mouse). Recipient mice were sacrificed for evaluation when the mice became weak and/or splenomegaly could be detected (30 to 60 days after injection). The different hematopoietic organs (liver, spleen, blood) were isolated and single cell suspension prepared for FACS analysis (see below).
Treatment with NIK Inhibitor
Plck-GAPDH tumors were injected into 10 NSG mice (see above) and 5 were treated with a newly developed chemical NIK inhibitor (compound 5 according to the invention) or with Vehicle. IP injections were performed every other day with compound 5 (250 μg in 100 μl DMSO/Tween-20/Labrafil) or vehicle (100 μl DMSO/Tween-20/Labrafil). The second NIK inhibitor used (compound 38 according to the invention) was more soluble and IP injections were performed every other day with compound 38 (250 μg in 100 μl NaCl 0,9%/mouse) or vehicle (100 μl NaCl 0,9%/mouse).
Two different plck-GAPDH tumors expressing high levels of PD-1 on the CD4^+ T cells were injected into 10 NSG mice and the mice were treated with anti-PD1 antibody (clone PMP1-14, BioXcell; 125 μg in PBS/mouse) or an isotope control antibody daily for the first 2 days post-tumor injection, then every other day.
Combined anti-PD1 and NIK Inhibitor Treatment
The mice were injected with antibody (anti-PD1 or isotype control) in the morning and compound 38 according to the invention (injected in the evening) daily for the first 2 days plck-GAPDH post-tumor injection, then every other day. Same concentration as for single treatments was used.
Recipient mice were sacrificed at endpoint (>10% weight loss or palpable splenomegaly). Single cell suspensions were prepared from the spleen, BM and liver for immunophenotypic FACS analysis.

Solubility = assay type: physicochemical
melanoma cell line A375 = assay: In vitro dose response study, A375 proliferation; assay type: cell-based, human; conditions: A375, 96h; for IC50: Homo sapiens, A-375, graded concentration, cell concentration
Protocol: The melanoma cell line A375 was treated during 96h with graded concentration of compounds 5, 38, 42 and 43. At the end of the culture period, the cell concentration was determined.

[3] = tested on: EZH2 mRNA in A375 cancer cells; assay: Quantitative RT-PCR analysis of EZH2 gene expression; assay type: cell-based, human; conditions: 10 μM, 96 h
Protocol: (§1) Quantitative RT-PCR Analysis of EZH2 and p21 Gene Expression
(§2) Total RNA was isolated from cells using the RNAeasy minikit (Qiagen) according to the manufacturer's procedure. Reverse transcription was performed using the AMV reverse transcription system (Promega), and quantitative PCR was performed with Power Sybr green (Applied Biosystems, Life Technologies, Grand Island, N.Y.) following the manufacturer's instructions. The PCR was carried out on a Step One plus Real-Time PCR system (Applied Biosystems). All analyses were done in triplicate, and a melting curve analysis was performed to control for product quality and specificity. Expression levels were calculated using the comparative method of relative quantification, with SB34 as a normalizer. The data were analyzed for statistical significance using Student's t-test. The results are presented as the mean±SEM relative to the control.
(§3) PCR primers for EZH2 (accession number NM004456.4) and p21(CDKN1A) (accession number NM078467.2) were obtained from primer bank or primer depot (http://pga.mgh.harvard.edu/primerbank/, https://primerdepot.nci.nih.gov), and their specificity was verified using primer blast (http://www.ncbi.nlm.nih.gov/tools/primer-blast/).

[4] = tested on: p21 (CDKN1A) mRNA in A375 cancer cells; assay: Quantitative RT-PCR analysis of p21 gene expression; assay type: cell-based, human; conditions: 10 μM, 96 h
Protocol: as §1, §2, §3

[5] = tested on: senescence-associated β-galactosidase (SA-β-Gal); assay: Quantitative senescence-associated beta-galactosidase assay; assay type: cell-based; conditions: SA-β-Gal 4-MUG cleavage; relative to DMSO-treated control
Description: Quantitative Senescence-Associated Beta-Galactosidase Assay
The production of the fluorophore was monitored at an […] wavelength of 365/460 nm, as reported (Gary and Kindell, 2005)

[6] = tested on: pancreas carcinoma (MiaPaca 2); assay: Cancer cell proliferation assay (trypan blue exclusion), MiaPaca-2; assay type: cell-based, human; conditions: 10 μM; proliferation normalized to DMSO-treated control
Protocol: (§4) Cancer cell proliferation assay (A375, A549, PC3, HT-29, MiaPaca-2 and MCF-7)
(§5) The tested cancer cells are the following: human melanoma cells (A375), lung carcinoma cells (A549), prostate cancer cells (PC3), colon adenocarcinoma (HT29), pancreas carcinoma (MiaPaca 2) and breast carcinoma (MCF-7).
(§6) Cells were counted using a Malassez chamber. The average and standard deviation were calculated from triplicate experiments. Antiproliferative effects were evaluated by trypan blue exclusion assay. Briefly, cells were seeded into 12-well plate and grown in media supplemented with indicated compound at 1 or 10μM for 48h or 96h. Cells were washed with PBS and detached by trypsinization, collected and colored by trypan blue.
(§7) Dead and living cells were counted and proliferation was calculated as follow: Proliferation (%)=[(treated cell number/untreated cells number)*100].
(§8) As a comparison, cell viability was also determined and calculated as follow: Viability (%)=100−[(dead cell number/total cells)*100].

[7] = tested on: colon adenocarcinoma (HT29); assay: Cancer cell proliferation assay (trypan blue exclusion), HT29; assay type: cell-based, human; conditions: 10 μM; proliferation normalized to DMSO-treated control
Protocol: as §4, §5, §6, §7, §8

[8] = tested on: IFN-γ in supernatant of A375 cancer cells; assay: ELISA measurement of IFN-γ in supernatant; assay type: cell-based, human; conditions: 10 μM, 96 h
Protocol: Supernatant from cells treated for 96 h was tested for human or mouse IFN-γ content via ELISA (peprotech, cat 900-k27 and 900-k98) kit following the manufacturer's instructions.

breast carcinoma (MCF-7) = assay: Cancer cell proliferation assay (trypan blue exclusion), MCF-7; assay type: cell-based, human; conditions: 10 μM; proliferation normalized to DMSO-treated control
Protocol: as §4, §5, §6, §7, §8

[9] = tested on: prostate cancer cells (PC3); assay: Cancer cell proliferation assay (trypan blue exclusion), PC3; assay type: cell-based, human; conditions: 10 μM; proliferation normalized to DMSO-treated control
Protocol: as §4, §5, §6, §7, §8

[10] = Microsomal stability (mouse liver microsomes); assay type: in vitro ADME; conditions: mouse liver microsomes 0.5 mg/mL, NADPH 1 mM, 37° C.
Protocol: Microsomal Stability (Mouse Liver Microsomes)
Microsomal stability was evaluated with mouse liver microsomes (0.5 mg/mL) and NADPH cofactor (1 mM) at 37° C. The percentage of remaining compound is determined at 5 min by LC-MS by measuring the area under the peak of compound on the chromatogram.

[11] = tested on: human melanoma cells (A375); assay: Cancer cell proliferation assay (trypan blue exclusion), A375; assay type: cell-based; conditions: 10 μM; proliferation normalized to DMSO-treated control
Protocol: as §4, §5, §6, §7, §8

[12] = tested on: lung carcinoma cells (A549); assay: Cancer cell proliferation assay (trypan blue exclusion), A549; assay type: cell-based, human; conditions: 10 μM; proliferation normalized to DMSO-treated control
Protocol: as §4, §5, §6, §7, §8

human melanocytes (MHN) = assay: Melanocyte viability assay (MHN); assay type: cell-based; conditions: 10 μM, 96 h; viability normalized to DMSO-treated control
Protocol: Melanocyte Viability Assay (MHN)
Cell viability effects were evaluated by trypan blue exclusion assay. Briefly, cells were seeded into 12-well plate and grown in media supplemented with indicated compound at 10 μM for 96 h. Cells were washed with PBS and detached by trypsinization, collected and colored by trypan blue. Dead and living cells were counted and cell viability was calculated as follow: Viability (%)=100−[(dead cell number/total cells)*100].

[13] = plck-GAPDH tumor engrafted NSG mice

NIK, sequence (Q99558 whole entry): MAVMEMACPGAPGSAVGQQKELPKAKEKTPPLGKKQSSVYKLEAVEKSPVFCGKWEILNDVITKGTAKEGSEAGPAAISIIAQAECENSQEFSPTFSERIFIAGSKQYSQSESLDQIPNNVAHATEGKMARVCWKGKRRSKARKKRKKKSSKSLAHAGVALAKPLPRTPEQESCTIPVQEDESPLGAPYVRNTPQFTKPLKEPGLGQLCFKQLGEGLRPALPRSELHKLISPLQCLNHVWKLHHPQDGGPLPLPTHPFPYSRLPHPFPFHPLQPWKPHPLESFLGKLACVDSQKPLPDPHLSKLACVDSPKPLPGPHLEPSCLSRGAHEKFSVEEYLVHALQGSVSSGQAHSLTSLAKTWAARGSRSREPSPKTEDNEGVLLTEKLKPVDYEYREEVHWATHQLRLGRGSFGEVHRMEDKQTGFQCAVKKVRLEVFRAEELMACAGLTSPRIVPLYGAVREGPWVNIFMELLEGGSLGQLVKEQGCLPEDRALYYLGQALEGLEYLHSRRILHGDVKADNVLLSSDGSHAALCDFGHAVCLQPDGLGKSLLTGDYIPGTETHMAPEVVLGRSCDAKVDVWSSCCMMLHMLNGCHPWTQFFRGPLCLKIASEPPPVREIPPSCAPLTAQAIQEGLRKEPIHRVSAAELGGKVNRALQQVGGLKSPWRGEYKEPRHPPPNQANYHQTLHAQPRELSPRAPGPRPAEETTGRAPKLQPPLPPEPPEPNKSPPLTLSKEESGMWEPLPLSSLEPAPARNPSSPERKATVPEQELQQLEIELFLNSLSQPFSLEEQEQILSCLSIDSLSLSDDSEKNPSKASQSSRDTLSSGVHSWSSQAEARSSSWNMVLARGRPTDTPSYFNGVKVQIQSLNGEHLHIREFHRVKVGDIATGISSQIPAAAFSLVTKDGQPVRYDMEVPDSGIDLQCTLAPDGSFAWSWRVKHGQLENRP

SMILES | anti-NIK activity (NIK) | concentration at which inhibition of A375 proliferation starts (melanoma cell line A375) | IC50 (melanoma cell line A375) | qPCR EZH2 A375 mRNA [3] | qPCR p21 A375 mRNA [4] | % Senescence, conversion rate [5] | Cancer Cell Proliferation MiaPaca-2 [6] | Cancer Cell Proliferation HT29 [7] | ELISA IFN-γ (A375), IFN-γ concentration [8] | Cancer Cell Proliferation MCF-7 (breast carcinoma (MCF-7)) | Cancer Cell Proliferation PC3 [9] | Cancer Cell Proliferation A375 [11] | Cancer Cell Proliferation A549 [12] | further results
COc1ccc(Nc2ccnc3cc(Cl)ccc23)cc1OC [Compound 38, N-(3,4-dimethoxyphenyl)-7-chloroquinolin-4-amine] | potent | around 5 mM | 0.56 µM |  |  |  |  |  |  |  |  |  |  | proliferation of B cell lymphoma cancer cell lines compared with controls (DMSO) [1]: strong inhibitory effect; cell viability of B cell lymphoma cell lines ([1]; data not shown): without affecting the cell viability; survival of the plck-GAPDH tumor engrafted mice ([2]; NSG mice, compound 38 250 μg IP, anti-PD1 125 μg, every other day): up to 60%; B cells in the spleen at sacrifice [2, 13]: highly significant decrease; CD4+ T cells in the spleen [2, 13]: strong reduction; Tfh PD1high CD4+ population in the spleen [2, 13]: residual subpopulation; spleen size at sacrifice compared to controls [2, 13]: significant decrease in spleen size; CD8 cytotoxicity (IFNγ, granzyme B, perforin by cytotoxic CD8+ cells) ([2]; splenocytes at sacrifice, PMA/ionomycin 5 h): increasing CD8 IFNγ release; solubility (Solubility): more soluble; solubility (Solubility; listed as COMPONENT 38): high solubility
COc1ccc(Nc2ccnc3cc(Cl)ccc23)cc1 [Compound 5, N-(4-methoxyphenyl)-7-chloroquinolin-4-amine] | confirmed its activity in vitro | around 5 mM | 1.33 µM |  |  |  |  |  |  |  |  |  |  | GC B cells in the spleen at sacrifice [2, 13]: completely devoid of GC B cells; survival of tumor engrafted NSG mice as compared to the control group ([2]; plck-GAPDH tumor engrafted NSG mice, IP treatment day 1 and 2, then every other day): significant increased survival
COc1ccc(Nc2ccnc3cc(Cl)ccc23)cc1O [Compound 43, 7-chloro-N-(3-(hydroxy)-4-(methoxy)phenyl)quinolin-4-amine] |  | around 5 mM |  | 0.62 fold relative to DMSO-treated control | 3.08 fold relative to DMSO-treated control | 1875.1% | 32.4% | 15.6% | 0.41 (ng/mL)/millions cells | 29.5% | 55.0% | 30.5% | 51.1% | Microsomal stability, mouse liver (5 min), percentage of the remaining compound [10]: 41% ± 3; Microsomal stability, mouse liver (5 min), percentage of the remaining compound ([10]; listed as compound 43): 41%
COCCOc1ccc(Nc2ccnc3cc(Cl)ccc23)cc1 [Compound 42, 7-chloro-N-(4-(2-methoxyethoxy)phenyl)quinolin-4-amine] |  | around 5 mM |  | 0.23 fold relative to DMSO-treated control | 6.79 fold relative to DMSO-treated control | 645.9% | 7.8% | 3.5% | 1.73 (ng/mL)/millions cells | 11.9% | 14.1% | 6.9% | 19.5% | Heathly Cell Viability MHN (human melanocytes (MHN)): 99.0%
